Tested on: serum antibodies of test subjects

Substance: Biotin-aminocaproyl-CRSKVNGQCG-NH4 [Peptide 2C]
- serum reactions: Strongest reactivities

— patent publication US20110191867A1
